Measurements reported in US20230312576A1, “4-(7H-PYRROLO[2,3-D]PYRIMIDIN-4-YL)-3,6-DIHYDROPYRIDINE-1-(2H)-CARBOXAMIDE DERIVATIVES AS LIMK AND/OR ROCK KINASES INHIBITORS FOR USE IN THE TREATMENT OF CANCER” (CENTRE NATIONAL DE LA RECHERCHE SCIENTIFIQUE, priority 2020, published 2023).
Where two headings read alike, the source gives them in different places.

How the values were obtained:
[1] = biological target: ROCK2 (Homo sapiens (Human), UniProt O75116); assay: Z'Lyte assay, ROCK2 inhibition at a single concentration; format: biochemical
[2] = biological target: LIMK2 (Homo sapiens (Human), UniProt P53671); assay: Lanthascreen Eu binding assay (TR-FRET), inhibition of LIMK2
[3] = biological target: LIMK1 (Homo sapiens (Human), UniProt P53667); assay: Lanthascreen Eu binding assay (TR-FRET), inhibition of LIMK1
[4] = biological target: ROCK1 (Homo sapiens (Human), UniProt Q13464); assay: Z'Lyte assay, ROCK1 inhibition at a single concentration; format: biochemical
[5] = read-out: % inhibition (ROCK2) 1 uM
[6] = read-out: % inhibition (ROCK1) 1 uM
[7] = read-out: % inhibition (ROCK2) 1 uM, 1 uM
[8] = read-out: % inhibition (ROCK1) 1 uM, 1 uM

Chain of LIMK2 (P53671 whole entry): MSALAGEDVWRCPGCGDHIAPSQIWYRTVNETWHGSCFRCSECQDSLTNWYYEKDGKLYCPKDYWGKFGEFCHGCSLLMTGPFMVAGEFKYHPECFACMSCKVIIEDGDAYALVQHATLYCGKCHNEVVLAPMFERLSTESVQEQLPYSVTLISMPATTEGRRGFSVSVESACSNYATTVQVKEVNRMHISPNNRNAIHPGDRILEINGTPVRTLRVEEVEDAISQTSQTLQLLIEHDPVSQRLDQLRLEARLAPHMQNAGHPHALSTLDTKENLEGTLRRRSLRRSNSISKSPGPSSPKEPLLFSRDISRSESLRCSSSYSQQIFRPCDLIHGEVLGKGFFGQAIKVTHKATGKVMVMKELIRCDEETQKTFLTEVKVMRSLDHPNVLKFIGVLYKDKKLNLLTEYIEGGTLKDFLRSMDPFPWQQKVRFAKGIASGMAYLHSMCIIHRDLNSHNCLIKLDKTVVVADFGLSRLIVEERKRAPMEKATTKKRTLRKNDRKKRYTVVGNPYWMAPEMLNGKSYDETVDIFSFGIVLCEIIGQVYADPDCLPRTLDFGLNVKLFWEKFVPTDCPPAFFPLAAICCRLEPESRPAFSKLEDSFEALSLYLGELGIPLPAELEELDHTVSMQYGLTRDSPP
Chain of LIMK1 (P53667 whole entry): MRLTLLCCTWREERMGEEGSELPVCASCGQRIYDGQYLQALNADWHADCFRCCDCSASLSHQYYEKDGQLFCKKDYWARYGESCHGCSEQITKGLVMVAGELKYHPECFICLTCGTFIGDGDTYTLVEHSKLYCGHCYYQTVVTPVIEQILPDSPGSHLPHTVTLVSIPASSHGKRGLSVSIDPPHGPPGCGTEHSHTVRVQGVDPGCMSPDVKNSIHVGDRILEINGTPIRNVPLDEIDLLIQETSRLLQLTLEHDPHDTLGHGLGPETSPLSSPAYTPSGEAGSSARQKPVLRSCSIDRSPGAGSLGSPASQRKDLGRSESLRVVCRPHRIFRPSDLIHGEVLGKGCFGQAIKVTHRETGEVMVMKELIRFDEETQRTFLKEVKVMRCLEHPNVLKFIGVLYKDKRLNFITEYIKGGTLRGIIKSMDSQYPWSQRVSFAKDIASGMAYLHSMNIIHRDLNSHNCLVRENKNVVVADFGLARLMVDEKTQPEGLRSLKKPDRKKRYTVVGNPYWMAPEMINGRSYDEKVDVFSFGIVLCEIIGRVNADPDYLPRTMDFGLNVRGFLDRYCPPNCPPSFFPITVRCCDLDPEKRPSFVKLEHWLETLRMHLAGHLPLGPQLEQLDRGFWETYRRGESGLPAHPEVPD
Chain of ROCK1 (Q13464 whole entry): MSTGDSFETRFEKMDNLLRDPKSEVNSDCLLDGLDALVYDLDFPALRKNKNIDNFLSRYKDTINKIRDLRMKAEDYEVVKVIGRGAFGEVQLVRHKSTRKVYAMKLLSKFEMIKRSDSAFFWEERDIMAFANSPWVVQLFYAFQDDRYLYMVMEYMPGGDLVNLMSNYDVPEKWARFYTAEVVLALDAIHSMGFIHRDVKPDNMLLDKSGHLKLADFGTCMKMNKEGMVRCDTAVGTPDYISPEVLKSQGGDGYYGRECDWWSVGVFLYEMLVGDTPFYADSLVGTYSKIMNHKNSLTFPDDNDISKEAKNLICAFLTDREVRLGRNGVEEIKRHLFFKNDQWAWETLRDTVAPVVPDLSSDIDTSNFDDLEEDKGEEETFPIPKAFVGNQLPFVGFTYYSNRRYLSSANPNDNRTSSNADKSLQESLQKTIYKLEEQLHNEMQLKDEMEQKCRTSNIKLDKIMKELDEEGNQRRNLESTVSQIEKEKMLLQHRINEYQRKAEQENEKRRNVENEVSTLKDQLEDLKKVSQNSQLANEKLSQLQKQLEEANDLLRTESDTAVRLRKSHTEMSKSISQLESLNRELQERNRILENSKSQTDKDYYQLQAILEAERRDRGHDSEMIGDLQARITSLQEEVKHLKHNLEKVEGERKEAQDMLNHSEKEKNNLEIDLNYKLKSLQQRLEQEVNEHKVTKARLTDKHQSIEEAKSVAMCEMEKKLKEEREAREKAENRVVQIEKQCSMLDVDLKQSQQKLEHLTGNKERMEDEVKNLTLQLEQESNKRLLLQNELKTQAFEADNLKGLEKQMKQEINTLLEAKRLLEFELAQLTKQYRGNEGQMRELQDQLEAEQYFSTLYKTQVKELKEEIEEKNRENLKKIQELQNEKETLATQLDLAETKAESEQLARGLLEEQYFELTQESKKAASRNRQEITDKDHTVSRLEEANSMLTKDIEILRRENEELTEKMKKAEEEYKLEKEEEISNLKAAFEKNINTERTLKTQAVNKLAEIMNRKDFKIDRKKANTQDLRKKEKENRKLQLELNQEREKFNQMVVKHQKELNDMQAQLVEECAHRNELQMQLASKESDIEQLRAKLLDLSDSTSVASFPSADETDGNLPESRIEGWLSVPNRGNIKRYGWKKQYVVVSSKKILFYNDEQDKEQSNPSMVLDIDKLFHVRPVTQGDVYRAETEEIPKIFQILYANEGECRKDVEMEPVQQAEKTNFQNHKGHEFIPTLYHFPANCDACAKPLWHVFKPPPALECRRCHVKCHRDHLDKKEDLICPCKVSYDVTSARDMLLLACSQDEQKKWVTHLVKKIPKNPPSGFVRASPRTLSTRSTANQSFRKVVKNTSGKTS
Chain of ROCK2 (O75116 whole entry): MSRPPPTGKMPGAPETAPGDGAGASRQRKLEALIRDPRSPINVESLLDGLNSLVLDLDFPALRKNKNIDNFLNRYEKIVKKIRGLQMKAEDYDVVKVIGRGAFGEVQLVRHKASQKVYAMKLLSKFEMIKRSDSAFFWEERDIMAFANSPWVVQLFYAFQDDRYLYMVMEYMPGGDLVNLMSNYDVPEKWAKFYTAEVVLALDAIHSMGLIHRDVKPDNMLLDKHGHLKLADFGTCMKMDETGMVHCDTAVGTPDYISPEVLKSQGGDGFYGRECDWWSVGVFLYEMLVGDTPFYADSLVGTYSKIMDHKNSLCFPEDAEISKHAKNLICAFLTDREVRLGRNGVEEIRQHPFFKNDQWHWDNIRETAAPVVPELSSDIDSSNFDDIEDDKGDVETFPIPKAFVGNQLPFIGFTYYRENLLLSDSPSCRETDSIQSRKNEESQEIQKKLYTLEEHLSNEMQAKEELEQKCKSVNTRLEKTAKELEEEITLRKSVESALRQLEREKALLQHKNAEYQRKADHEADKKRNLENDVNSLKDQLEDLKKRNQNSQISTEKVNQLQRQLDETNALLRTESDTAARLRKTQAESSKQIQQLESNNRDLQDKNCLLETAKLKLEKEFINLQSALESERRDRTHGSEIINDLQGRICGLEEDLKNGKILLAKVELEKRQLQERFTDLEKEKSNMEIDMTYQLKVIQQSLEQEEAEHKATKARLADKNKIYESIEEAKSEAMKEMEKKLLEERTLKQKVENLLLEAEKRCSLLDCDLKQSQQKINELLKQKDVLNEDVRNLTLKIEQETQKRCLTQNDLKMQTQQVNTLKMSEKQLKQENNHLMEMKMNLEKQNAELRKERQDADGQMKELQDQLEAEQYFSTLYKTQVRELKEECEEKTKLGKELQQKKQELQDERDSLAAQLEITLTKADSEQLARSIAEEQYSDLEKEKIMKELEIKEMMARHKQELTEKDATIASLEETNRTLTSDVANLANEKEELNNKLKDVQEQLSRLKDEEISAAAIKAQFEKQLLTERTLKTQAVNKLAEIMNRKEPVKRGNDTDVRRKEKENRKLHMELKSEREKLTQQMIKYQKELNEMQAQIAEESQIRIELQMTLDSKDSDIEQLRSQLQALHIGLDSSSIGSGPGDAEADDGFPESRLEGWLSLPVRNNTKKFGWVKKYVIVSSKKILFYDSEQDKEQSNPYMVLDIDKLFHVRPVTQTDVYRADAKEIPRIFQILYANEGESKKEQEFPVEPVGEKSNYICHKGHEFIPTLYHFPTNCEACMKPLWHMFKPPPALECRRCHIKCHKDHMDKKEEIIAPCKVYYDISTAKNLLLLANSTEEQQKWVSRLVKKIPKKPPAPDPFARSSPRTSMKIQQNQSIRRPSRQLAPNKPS

| Compound | inhibition at 1 µM [1, 5] [%] | Ki ([2]; Lanthascreen Eu binding assay) [nM] | Ki ([3]; Lanthascreen Eu binding assay) [nM] | inhibition at 1 µM [4, 6] [%] | inhibition at 1 µM [1, 7] [%] | inhibition at 1 µM [4, 8] [%] | other results |
| --- | --- | --- | --- | --- | --- | --- | --- |
| Cc1c[nH]c2ncnc(C3=CCN(C(=O)NC4CCCc5ccccc54)CC3)c12 (racemic) [Compound 34-rac, 4-(5-methyl-7H-pyrrolo[2,3-d]pyrimidin-4-yl)-N-tetralin-1-yl-3,6-dihydro-2H-pyridine-1-carboxamide] | 52 | 742 | 610 | 79 |  |  |  |
| Cc1c[nH]c2ncnc(C3=CCN(C(=O)Nc4ccc(Cl)c(C(F)(F)F)c4)CC3)c12 [Compound 12, N-(4-Chloro-3-(trifluoromethyl)phenyl)-4-(5-methyl-7H-pyrrolo[2,3-d]pyrimidin-4-yl)-3,6-dihydropyridine-1(2H)-carboxamide] |  |  |  |  | 69 | 79 |  |
| Cc1c[nH]c2ncnc(C3=CCN(C(=O)Nc4ccc5c(c4)OCO5)CC3)c12 [Compound 14, N-(Benzo[d][1,3]dioxol-5-yl)-4-(5-methyl-7H-pyrrolo[2,3-d]pyrimidin-4-yl)-3,6-dihydropyridine-1(2H)-carboxamide] | 59 |  |  | 79 |  |  |  |
| Cc1c[nH]c2ncnc(C3=CCN(C(=O)Nc4ccc(Oc5ccccc5)cc4)CC3)c12 [Compound 16, 4-(5-Methyl-7H-pyrrolo[2,3-d]pyrimidin-4-yl)-N-(4-phenoxy-phenyl)-3,6-dihydropyridine-1(2H)-carboxamide] |  | 341 | 80.1 |  |  |  | % inhibition (ROCK2) 1 uM ([1]; 1 uM): 14%; % inhibition (ROCK1) 1 uM ([4]; 1 uM): 15% |
| CCc1cccc(NC(=O)N2CC=C(c3ncnc4[nH]cc(C)c34)CC2)c1 [Compound 20, N-(3-Ethylphenyl)-4-(5-methyl-7H-pyrrolo[2,3-d]pyrimidin-4-yl)-3,6-dihydropyridine-1(2H)-carboxamide] |  | 193 | 162 |  | 28 | 55 |  |
| Cc1c[nH]c2ncnc(C3=CCN(C(=O)Nc4cccc(-n5ccnc5)c4)CC3)c12 [Compound 24, N-(3-(1H-Imidazol-1-yl)phenyl)-4-(5-methyl-7H-pyrrolo[2,3-d]pyrimidin-4-yl)-3,6-dihydropyridine-1(2H)-carboxamide] | 25 |  |  | 40 |  |  |  |
| Cc1c[nH]c2ncnc(C3=CCN(C(=O)Nc4cccc(-n5cncn5)c4)CC3)c12 [Compound 26, N-(3-(1H-1,2,4-Triazol-1-yl)phenyl)-4-(5-methyl-7H-pyrrolo[2,3-d]pyrimidin-4-yl)-3,6-dihydropyridine-1(2H)-carboxamide] |  | 90.7 | 278 |  | 64 | 85 |  |
| Cc1c[nH]c2ncnc(C3=CCN(C(=O)Nc4ccc(Oc5ccccc5)cc4)CC3)c12 [Compound 28, 4-(5-Methyl-7H-pyrrolo[2,3-d]pyrimidin-4-yl)-N-(4-phenoxy-phenyl)-3,6-dihydropyridine-1(2H)-carboxamide] |  | 43.6 | 34.5 |  |  |  | % inhibition (ROCK2) 1 uM ([1]; 1 uM): 35%; % inhibition (ROCK1) 1 uM ([4]; 1 uM): 76% |
| Cc1c[nH]c2ncnc(C3=CCN(C(=O)Nc4cccs4)CC3)c12 [Compound 33, 4-(5-methyl-7H-pyrrolo[2,3-d]pyrimidin-4-yl)-N-(2-thienyl)-3,6-dihydro-2H-pyridine-1-carboxamide] |  | 186 | 50.1 |  | 87 | 96 |  |
| Cc1c[nH]c2ncnc(C3=CCN(C(=O)N[C@@H]4CCCc5ccccc54)CC3)c12 [Compound 35-R, 4-(5-methyl-7H-pyrrolo[2,3-d]pyrimidin-4-yl)-N-tetralin-1-yl-3,6-dihydro-2H-pyridine-1-carboxamide] | 12 |  |  | 24 |  |  | Ki [2]: 2540 nM; Ki [3]: 851 nM |
| CC(=O)NCCCOc1cccc(-c2cccc(NC(=O)N3CC=C(c4ncnc5[nH]cc(C)c45)CC3)c2)c1 [Compound 40, N-(3′-(3-Acetamidopropoxy)-[1,1′-biphenyl]-3-yl)-4-(5-methyl-7H-pyrrolo[2,3-d]pyrimidin-4-yl)-5,6-dihydropyridine-1(2H)-carboxamide] |  | 13.4 | 10.6 |  | 22 | 33 |  |
| Cc1c[nH]c2ncnc(C3=CCN(C(=O)Nc4cccc(Oc5ccc(N(C)C)cc5)c4)CC3)c12 [Compound 42, N-[3-[4-(Dimethylamino)phenoxy]phenyl]-4-(5-methyl-7H-pyrrolo[2,3-d]pyrimidin-4-yl)-3,6-dihydro-2H-pyridine-1-carboxamide] |  | 53.3 | 30.7 |  | 31 | 37 |  |
| O=C(NC1CCCCC1)N1CC=C(c2ncnc3[nH]cc(C4CC4)c23)CC1 [Compound 83, N-Cyclohexyl-4-(5-cyclopropyl-7H-pyrrolo[2,3-d]pyrimidin-4-yl)-3,6-dihydropyridine-1(2H)-carboxamide] |  |  | 90.9 |  | -4 | 6 |  |
| O=C(Nc1ccccc1)N1CC=C(c2ncnc3[nH]c4c(c23)CCCC4)CC1 [Compound 120, N-Phenyl-4-(6,7,8,9-tetrahydro-5H-pyrimido[4,5-b]indol-4-yl)-3,6-dihydropyridine-1(2H)-carboxamide] | -9 | 29.6 | 14.9 | 0 |  |  |  |
| O=C(Nc1cccc(-c2ccccc2)c1)N1CC=C(c2ncnc3[nH]c4c(c23)CCC4)CC1 [Compound 123, N-([1,1′-Biphenyl]-3-yl)-4-(5,6,7,8-tetrahydrocyclopenta[4,5]pyrrolo[2,3-d]pyrimidin-4-yl)-3,6-dihydropyridine-1(2H)-carboxamide] | 1 | 16.2 | 11.5 | 10 |  |  |  |
| O=C(Nc1cccc(-c2ccncc2)c1)N1CC=C(c2ncnc3[nH]c4c(c23)CCC4)CC1 [Compound 124, N-(3-(Pyridin-4-yl)phenyl)-4-(5,6,7,8-tetrahydrocyclopenta [4,5]pyrrolo[2,3-d]pyrimidin-4-yl)-3,6-dihydropyridine-1(2H)-carboxamide] |  | 19.6 | 6.49 |  | 2 | 7 |  |
| O=C(Nc1cccc(Oc2ccccc2)c1)N1CC=C(c2ncnc3[nH]c4c(c23)CCCC4)CC1 [Compound 126, N-(3-Phenoxyphenyl)-4-(6,7,8,9-tetrahydro-5H-pyrimido[4,5-b]indol-4-yl)-3,6-dihydropyridine-1(2H)-carboxamide] |  | 20.5 | 30.2 |  | -5 | 7 |  |
| COc1cccc(-c2cccc(NC(=O)N3CC=C(c4ncnc5[nH]c6c(c45)CCC6)CC3)c2)c1 [Compound 137, N-[3-(3-Methoxyphenyl)phenyl]-4-(7,9,11-triazatricyclo [6.4.0.02,6]dodeca-1(8),2(6),9,11-tetraen-12-yl)-3,6-dihydropyridine-1(2H)-carboxamide] |  | 8.59 | 4.97 |  | 4 | -1 |  |
| CN1CCc2[nH]c3ncnc(C4=CCN(C(=O)Nc5cccc(F)c5)CC4)c3c2C1 [Compound 160, N-(3-Fluorophenyl)-4-(6-methyl-6,7,8,9-tetrahydro-5H-pyrido[3′,4′:4,5]pyrrolo[2,3-d]pyrimidin-4-yl)-3,6-dihydropyridine-1(2H)-carboxamide] |  | 2440 | 1170 |  | -9 | 1 |  |
| CN1CCc2[nH]c3ncnc(C4=CCN(C(=O)Nc5cccc(Cl)c5)CC4)c3c2C1 [Compound 161, N-(3-Chlorophenyl)-4-(6-methyl-6,7,8,9-tetrahydro-5H-pyrido[3′,4′:4,5]pyrrolo[2,3-d]pyrimidin-4-yl)-3,6-dihydropyridine-1(2H)-carboxamide] | -9 | 2440 | 1170 | 1 |  |  |  |
| CN1CCc2[nH]c3ncnc(C4=CCN(C(=O)Nc5cccc(Br)c5)CC4)c3c2C1 [Compound 162, N-(3-Bromophenyl)-4-(6-methyl-6,7,8,9-tetrahydro-5H-pyrido [3′,4′:4,5]pyrrolo[2,3-d]pyrimidin-4-yl)-3,6-dihydropyridine-1(2H)-carboxamide] | -8 |  |  | 4 |  |  | Ki [2]: 1030 nM; Ki [3]: 722 nM |
| CC(C)(C)OC(=O)NCCCOc1cccc(-c2cccc(NC(=O)N3CC=C(c4ncnc5[nH]c6c(c45)CCC6)CC3)c2)c1 [Compound 164, tert-butyl (3-((3′-(4-(5,6,7,8-tetrahydrocyclopenta[4,5]pyrrolo[2,3-d]pyrimidin-4-yl)-1,2,3,6-tetrahydropyridine-1-carboxamido)-[1,1′-biphenyl]-3-yl)oxy)propyl)carbamate] |  | 41.2 | 48.4 |  | 4 | -2 |  |
| CC1=CC(C)=[N+]2C1=Cc1ccc(CCC(=O)NCCCOc3cccc(-c4cccc(NC(=O)N5CC=C(c6ncnc7[nH]cc(C8CC8)c67)CC5)c4)c3)n1[B-]2(F)F [Compound 168, N-(3′-(3-(3-(5,5-Difluoro-7,9-dimethyl-5H-dipyrrolo[1,2-c:2′,1′-f][1,3,2]diazaborinin-3-yl)propanamido)propoxy)-[1,1′-biphenyl]-3-yl)-4-(5-isopropyl-7H-pyrrolo[2,3-d]pyrimidin-4-yl)-3,6-dihydropyridine-1(2H)-carboxamide] |  |  |  |  |  |  | % inhibition (ROCK2) 1 uM [1]: 20%; % inhibition (ROCK1) 1 uM [4]: 2% |
| CC1=CC(C)=[N+]2C1=Cc1ccc(CCC(=O)NCCCOc3cccc(-c4cccc(NC(=O)N5CC=C(c6ncnc7[nH]cc(C)c67)CC5)c4)c3)n1[B-]2(F)F [Compound 169, N-(3′-(3-(3-(5,5-difluoro-7,9-dimethyl-5H-dipyrrolo[1,2-c:2′,1′-f][1,3,2]diazaborinin-3-yl)propanamido)propoxy)-[1,1′-biphenyl]-3-yl)-4-(5-methyl-7H-pyrrolo [2,3-d]pyrimidin-4-yl)-3,6-dihydropyridine-1(2H)-carboxamide] |  |  |  |  |  |  | % inhibition (ROCK1) 1 uM [4]: 10% |
